Data on 32 molecules can be found in patent US9888688B2, “Tetrazolinone compounds and applications thereof” (Sumitomo Chemical Company, Limited, priority 2013, dated 2018).

Usually pest or weed control stands for how far the test organism was held down. Lower therefore signals weak suppression. One may read the mortality as the percentage killed. The low end stands for a weak lethal effect, the high end for a strong lethal effect.

Common to all, as to format: in vivo
The subject of test [1] is wheat leaf blotch fungus (Septoria tritici). The test is described as follows: Wheat leaf blotch control test, spray before inoculation (Test Examples 6, 9, 10, Comparative Test Example). The conditions noted are these: 500 ppm foliar spray, wheat APOGEE, inoculated after 4 days.
In test [2] the test system is cotton aphid (Aphis gossypii). The test can be described thus: Cotton aphid control test on cucumber (Test Example 32). The conditions noted are these: 144 h, 20 mL sprayed on cucumber, after 6 days. The procedure:
In the present Test Example, a water dilution containing a surfactant prepared by adjusting so as to contain a predetermined concentration (500 ppm) of the present compound was used as a test chemical solution. Thirty (30) heads of cotton aphid (Aphis gossypii) (including adults and larvae) were released on the leaves of cucumber grown in a polyethylene cup until the first true leaf was developed. Next day, 20 mL of the above test chemical solution was sprayed. After 6 days, the number of the surviving insects was counted and the control value was calculated by the following equation. Control value (%)={1−(Cb×Tai)/(Cai×Tb)}×100 wherein symbols in the equation represent the followings: Cb: Number of insects before spraying chemical solution in untreated area; Cai: Number of surviving insects in untreated area; Tb: Number of insects before spraying chemical solution in treated area; and Tai: Number of surviving insects in treated area.

The subject of test [3] is cabbage moth (Plutella xylostella). The test is described as follows: Cabbage moth larvae mortality test on cabbage (Test Example 31). The conditions noted are these: 120 h, 500 ppm spray on cabbage 20 mL/cup, third instar larvae, 25° C., after 5 days. The procedure:
(§1) In the present Test Example, a water dilution containing a surfactant prepared by adjusting so as to contain a predetermined concentration (500 ppm) of the present compound was used as a test chemical solution.
Cabbage was planted in each of polyethylene cups and grown until the third true leaf or the fourth true leaf was developed. The above test chemical solution was sprayed over the cabbage (Brassicae oleracea) at a rate of 20 mL/cup. After drying the chemical solution, the polyethylene cup having a volume of 400 mL was covered. Ten (10) heads of third instar larvae of cabbage moth (Plutella xylostella) were released in the cup and the cup was covered with a Tetron fabric. The cup was held at 25° C. and, after 5 days, the number of the surviving insects was counted and the mortality of insects was calculated by the following equation.
Mortality (%)=(number of dead insects/number of test insects)×100

Test [4] relates to barley net blotch fungus (Pyrenophora teres). The test can be described thus: Barley net blotch control test, foliar spray on barley (Test Examples 4, 16, 17, 18). Particulars: 12.5 ppm foliar spray, barley NISHINOHOSHI, inoculated after 2 days.
Test [5] relates to common house mosquito (Culex pipiens pallens). The test is described as follows: Common house mosquito larvae mortality test (Test Example 30). Particulars: 192 h, 3.5 ppm active ingredient in water, last instar larvae, after 8 days. The procedure: as §1
The above test chemical solution (0.7 mL) was added to 100 mL of deionized water to adjust the concentration of an active ingredient to 3.5 ppm. Twenty (20) heads of last instar larvae of common house mosquito (Culex pipiens pallens) were released in the solution and the number of dead insects was counted after 8 days.
Mortality was determined by the following equation. Mortality (%)=(number of dead insects/number of test insects)×100

SMILES strings stand for the structures.

For `Cn1nnn(-c2ccccc2COc2ccc(-c3ccccc3)cc2)c1=O` [1-methyl-4-[2-(4-phenyl-phenoxymethyl)-phenyl]-1,4-dihydrotetrazol-5-one, reference compound], the “area of lesion spots relative to that on an untreated plant” value (shortened to “area of lesion spots relative to that”) in test [1] was not below 70%.
Molecule `CCOc1cccc(-n2nnn(C)c2=O)c1COc1ccc(-c2ccccn2)cc1C` [Present Compound 8] came in with a pest or weed control at 500 ppm in test [2] not below 90%.
Consider `Cc1ccnc(-c2ccc(OCc3c(C)cccc3-n3nnn(C)c3=O)c(C)c2)c1` [Present Compound 20], for which the pest or weed control at 500 ppm in test [2] was not below 90%.
In turn, `CCOc1cccc(-n2nnn(C)c2=O)c1COc1ccc(-c2ccc(Cl)cn2)cc1C` [Present Compound 29] gave a pest or weed control at 500 ppm in test [2] not below 90%.
For `CCOc1cccc(-n2nnn(C)c2=O)c1COc1ccc(-c2cccc(Cl)n2)cc1C` [Present Compound 41], the pest or weed control at 500 ppm in test [2] is not below 90%.
`CCc1cccc(-c2ccc(OCc3c(OC)cccc3-n3nnn(C)c3=O)c(C)c2)n1` [Present Compound 45] gave a pest or weed control at 500 ppm in test [2] not below 90%.
Turning to `Cc1cccc(-c2ccc(OCc3c(C)cccc3-n3nnn(C)c3=O)c(C)c2)n1` [Present Compound 48], the mortality at 500 ppm in test [3] was not below 90%.
For `CCOc1cccc(-n2nnn(C)c2=O)c1COc1ccc(-c2cccc(C)n2)cc1C` [Present Compound 53], the “area of lesion spots relative to that” value in test [4] is not above 30%.
In turn, `Cc1cccc(-c2ccc(OCc3c(C)cccc3-n3nnn(C)c3=O)c(C(F)(F)F)c2)n1` [Present Compound 59] came in with a pest or weed control at 500 ppm in test [2] not below 90%.
Molecule `Cc1ccnc(-c2ccc(OCc3c(C4CC4)cccc3-n3nnn(C)c3=O)c(C)c2)n1` [Present Compound 92] showed a mortality at 500 ppm in test [3] not below 90%.
In turn, `CCc1cccc(-n2nnn(C)c2=O)c1COc1ccc(-c2nccc(C)n2)cc1C` [Present Compound 93] displayed a mortality at 3.5 ppm in test [5] of 100%.
With `Cc1cc(-c2cccc(C#N)n2)ccc1OCc1c(C2CC2)cccc1-n1nnn(C)c1=O` [Present Compound 116], in test [5], the mortality at 3.5 ppm is 100%. For the same molecule, the pest or weed control at 500 ppm in test [2] is not below 90%.
Take `Cc1cccc(-c2ccc(OCc3ccccc3-n3nnn(C)c3=O)c(C(F)(F)F)c2)n1` [Present Compound 127]: the pest or weed control at 500 ppm in test [2] is not below 90%.
For the molecule `CCc1cccc(-c2ccc(OCc3ccccc3-n3nnn(C)c3=O)c(C(F)(F)F)c2)n1` [Present Compound 130], the pest or weed control at 500 ppm in test [2] was not below 90%.
Consider `CCc1cccc(-c2ccc(OCc3c(C)cccc3-n3nnn(C)c3=O)c(C(F)(F)F)c2)n1` [Present Compound 131], for which, in test [2], the pest or weed control at 500 ppm is not below 90%.
In test [2], `Cc1ccnc(-c2ccc(OCc3c(Cl)cccc3-n3nnn(C)c3=O)c(C(F)(F)F)c2)n1` [Present Compound 134] showed a pest or weed control at 500 ppm not below 90%.
Consider `Cc1ccnc(-c2ccc(OCc3ccccc3-n3nnn(C)c3=O)c(C(F)(F)F)c2)n1` [Present Compound 137], for which the pest or weed control at 500 ppm in test [2] was not below 90%.
Still for that read-out and setting: for `CCc1cccc(-n2nnn(C)c2=O)c1COc1ccc(-c2nccc(C)n2)cc1C(F)(F)F` [Present Compound 138] the value was not below 90%.
With `C=C(C)c1cccc(-c2ccc(OCc3c(C)cccc3-n3nnn(C)c3=O)c(C)c2)n1` [Present Compound 148], in test [2], the pest or weed control at 500 ppm is not below 90%.
Take `Cc1cc(-c2cccc(C(C)C)n2)ccc1OCc1c(C)cccc1-n1nnn(C)c1=O` [Present Compound 149]: in test [2], the pest or weed control at 500 ppm is not below 90%.
`COc1cc(-c2cccc(C)n2)ccc1OCc1c(C)cccc1-n1nnn(C)c1=O` [Present Compound 155] yielded a pest or weed control at 500 ppm in test [2] not below 90%.
The same measure, in the same setting: for `Cc1cccc(-c2ccc(OCc3c(C)cccc3-n3nnn(C)c3=O)c(C#N)c2)n1` [Present Compound 156] the value was not below 90%; for `COc1ccncc1-c1cc(C)c(OCc2c(C)cccc2-n2nnn(C)c2=O)cc1C` [Present Compound 192], not below 90%; for `Cc1cc(-c2ccc(F)cn2)c(F)cc1OCc1c(C)cccc1-n1nnn(C)c1=O` [Present Compound 195], not below 90%.
`Cc1cccc(-n2nnn(C)c2=O)c1COc1cc(Cl)c(-c2ccccn2)cc1Cl` [Present Compound 210] had a pest or weed control at 500 ppm in test [2] not below 90%.
Molecule `CCc1cccc(-n2nnn(C)c2=O)c1COc1cc(C)c(-c2ccc(F)cn2)cc1C` [Present Compound 215] showed a mortality at 3.5 ppm in test [5] of 100%.
As to `Cc1cc(-c2ccc(F)cn2)c(C)cc1OCc1c(C2CC2)cccc1-n1nnn(C)c1=O` [Present Compound 219], the pest or weed control at 500 ppm in test [2] was not below 90%.
Consider `Cn1nnn(-c2ccccc2COc2ccc(-c3ccccn3)cc2)c1=O` [Present Compound 223], for which the “area of lesion spots relative to that” value in test [1] is on record as not above 30%.
In test [2], `Cc1ccc(-c2ccc(OCc3c(C)cccc3-n3nnn(C)c3=O)c(C)c2)nn1` [Present Compound 234] gave a pest or weed control at 500 ppm not below 90%.
The molecule `Cc1cc(-c2ncc(F)cn2)ccc1OCc1c(C)cccc1-n1nnn(C)c1=O` [Present Compound 236] yielded a mortality at 3.5 ppm in test [5] of 100%. In test [2], this molecule returned a pest or weed control at 500 ppm not below 90%.
The molecule `Cc1cc(-c2ncc(F)cn2)c(C)cc1OCc1c(C)cccc1-n1nnn(C)c1=O` [Present Compound 238] gave a pest or weed control at 500 ppm in test [2] not below 90%.
In test [5], `Cc1cc(-c2ncc(Cl)cn2)c(F)cc1OCc1c(C)cccc1-n1nnn(C)c1=O` [Present Compound 242] registered a mortality at 3.5 ppm of 100%.
